# According to patent publication US10344019B2 (priority 2010, dated 2019):
# Like-named read-outs stand apart in the source and are kept apart here.
# What was measured:
# Type in all cases: cell-based
# [1] = test system: Q30R in genotype 1a NS5A, 1a Rluc replicon transfected into Huh-7 cured-51 cells; assay: HCV replicon assay, resistance mutant 1a Q30R; details: Hepatitis C virus, Huh-7, read-out: 1a Q30R
# Method in brief: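 Cells were Huh-7 cured-51 transfected with replicon RNA of a genotype 1a H77 RLuc replicon carrying site-directed Q30R in NS5A.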
# [2] = test system: HCV 2b Rluc cells (NS5A chimeric genotype 2a JFH-1 replicon with genotype 2b MD2b-1 NS5A gene, M31 present); assay: microbe, parasite or virus in culture; details: Hepatitis C virus, read-out: 2b
# Method in brief: (§1)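 Replicon cells stably carrying the listed RLuc-encoding dicistronic replicons were seeded and treated with DMSO serial dilutions of compound (10 mM stocks) diluted into culture medium. After 72 h, cells were lysed and Renilla luciferase activity measured. EC50 was derived by non-linear regression.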
# [3] = test system: HCV 3a RLuc cells (NS5A chimeric genotype 1b Con1 replicon with consensus genotype 3a NS5A gene); assay: microbe, parasite or virus in culture; details: Hepatitis C virus
# Method in brief: as §1
# [4] = test system: HCV 1b RLuc cells (dicistronic genotype 1b Con1 replicon, RLuc reporter); assay: microbe, parasite or virus in culture; details: Hepatitis C virus, read-out: 1b (nM)
# Method in brief: (§2)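 Renilla luciferase HCV replicon cells: dicistronic 1b Con1, 1a H77 or 2a JFH-1 replicons, or a JFH-1 chimera carrying J6 NS5A (M31 present). Compound in DMSO serial dilutions, 72 h incubation, then lysis and luciferase read. EC50 by non-linear regression.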
# [5] = test system: HCV 2a JFH-1 Rluc cells (dicistronic genotype 2a JFH-1 replicon, RLuc reporter); assay: microbe, parasite or virus in culture; details: Hepatitis C virus, read-out: 2a JFH
# Method in brief: as §2
# [6] = test system: HCV 1a RLuc cells (dicistronic genotype 1a H77 replicon, RLuc reporter); assay: microbe, parasite or virus in culture; details: Hepatitis C virus, read-out: 1a
# Method in brief: as §2
# [7] = test system: HCV 4a Rluc cells (NS5A chimeric genotype 1b Con1 replicon with genotype 4a NS5A gene); assay: microbe, parasite or virus in culture; details: Hepatitis C virus, read-out: 4a
# Method in brief: as §1
# [8] = test system: HCV 2a Rluc cells (NS5A chimeric genotype 2a JFH-1 replicon with genotype 2a J6 strain NS5A gene, M31 present); assay: HCV replicon reporter assay, genotype 2a J6 (M31 present); details: Hepatitis C virus, read-out: 2a J6
# Method in brief: as §2
# [9] = read-out: 3a, genotype 3a NS5A chimeric replicon
# [10] = genotype 2a JFH-1 RLuc replicon
# [11] = read-out: 3a, genotype 3a replicon
SMILES,EC50 [1],EC50 [2],"EC50 [3, 9]",EC50 [4],"EC50 [5, 10]",EC50 ([6]; genotype 1a H77 RLuc replicon),EC50 [7],EC50 [8],"EC50 [3, 11]",EC50 ([5]; genotype 2a JFH-1 replicon),EC50 ([6]; genotype 1a replicon)
COCC(=O)N[C@@H](C(=O)N1C[C@@H](COC)C[C@H]1c1nc2ccc3cc(-c4ccc5c(ccc6nc([C@@H]7C[C@H](C)CN7C(=O)[C@@H](NC(=O)OC)C(C)C)[nH]c65)c4)ccc3c2[nH]1)c1ccccc1 [Example 550],0.001 to 0.999 nM,0.001 to 0.999 nM,0.001 to 0.99 nM,0.013 nM,0.001 to 0.999 nM,0.001 to 0.999 nM,0.001 to 0.99 nM,0.001 to 0.999 nM,,,
COC[C@H]1C[C@@H](c2nc3ccc4cc(-c5ccc6c(ccc7nc([C@@H]8C[C@H]9C[C@H]9N8C(=O)[C@H](NC(=O)OC)c8ccccc8)[nH]c76)c5)ccc4c3[nH]2)N(C(=O)[C@@H](NC(=O)OC)C(C)C)C1 [Example 548],0.001 to 0.999 nM,0.001 to 0.999 nM,0.001 to 0.99 nM,0.006 nM,0.001 to 0.999 nM,0.001 to 0.999 nM,0.001 to 0.99 nM,0.001 to 0.999 nM,,,
COC[C@H]1C[C@@H](c2nc3ccc4cc(-c5ccc6c(ccc7nc([C@@H]8C[C@H](C)CN8C(=O)[C@@H](NC(=O)OC)C(C)C)[nH]c76)c5)ccc4c3[nH]2)N(C(=O)[C@@H](NC(=O)OC)C2CCOCC2)C1 [Example 560],0.001 to 0.999 nM,0.001 to 0.999 nM,0.001 to 0.99 nM,0.092 nM,0.001 to 0.999 nM,0.001 to 0.999 nM,0.001 to 0.99 nM,0.001 to 0.999 nM,,,
COC(=O)N[C@H](C(=O)N1[C@H](c2nc3ccc4cc5c(cc4c3[nH]2)OCc2cc(-c3cnc(C4CCCN4C(=O)[C@H](NC(=O)OC)c4ccccc4)[nH]3)ccc2-5)C[C@@H]2CCC[C@@H]21)C(C)C (stereo partly shown) [Example 574],0.001 to 0.999 nM,0.001 to 0.999 nM,0.001 to 0.99 nM,,0.001 to 0.999 nM,0.001 to 0.999 nM,0.001 to 0.99 nM,0.001 to 0.999 nM,,,
COC(=O)N[C@H](C(=O)N1CCC[C@H]1c1nc2c([nH]1)-c1cc3c(cc1CC2)-c1ccc(-c2cnc([C@@H]4CCCN4C(=O)[C@H](NC(=O)OC)c4ccccc4)[nH]2)cc1CO3)C(C)C [Example 435],0.001 to 0.999 nM,0.001 to 0.999 nM,,,,,0.001 to 0.99 nM,0.001 to 0.999 nM,0.001 to 0.99 nM,0.001 to 0.999 nM,0.001 to 0.999 nM
COC[C@@H]1C[C@@H](c2nc3ccc4cc5c(cc4c3[nH]2)OCc2cc(-c3cnc([C@@H]4CCCN4C(=O)[C@@H](NC(=O)OC)C(C)C)[nH]3)ccc2-5)N(C(=O)[C@H](NC(=O)OC)c2ccccc2)C1 [Example 589],0.001 to 0.999 nM,0.001 to 0.999 nM,0.001 to 0.99 nM,,0.001 to 0.999 nM,0.001 to 0.999 nM,0.001 to 0.99 nM,0.001 to 0.999 nM,,,
COC(=O)N[C@H](C(=O)N1CCC[C@H]1c1ncc(-c2ccc3c(c2)COc2cc4c(cc2-3)CCc2nc([C@@H]3CCCN3C(=O)[C@H](NC(=O)OC)c3ccccc3)[nH]c2-4)[nH]1)C(C)C [Example 434],0.001 to 0.999 nM,0.001 to 0.999 nM,,,,,0.001 to 0.99 nM,0.001 to 0.999 nM,0.001 to 0.99 nM,0.001 to 0.999 nM,0.001 to 0.999 nM
COC[C@H]1C[C@@H](c2nc3c([nH]2)-c2cc4c(cc2CC3)-c2ccc(-c3cnc([C@@H]5CCCN5C(=O)[C@@H](NC(=O)OC)C(C)C)[nH]3)cc2CO4)N(C(=O)[C@H](NC(=O)OC)c2ccccc2)C1 [Example 587],0.001 to 0.999 nM,0.001 to 0.999 nM,0.001 to 0.99 nM,,0.001 to 0.999 nM,0.001 to 0.999 nM,0.001 to 0.99 nM,0.001 to 0.999 nM,,,
COC(=O)N[C@H](C(=O)N1[C@@H](C)CC[C@H]1c1ncc(-c2ccc3c(c2)COc2cc4c(ccc5nc([C@@H]6CC[C@H](C)N6C(=O)[C@@H](NC(=O)OC)[C@@H](C)OC)[nH]c54)cc2-3)[nH]1)[C@@H](C)OC [Example 592],0.001 to 0.999 nM,0.001 to 0.999 nM,0.001 to 0.99 nM,,0.001 to 0.999 nM,0.001 to 0.999 nM,0.001 to 0.99 nM,0.001 to 0.999 nM,,,
COC[C@H]1C[C@@H](c2nc3ccc4cc5c(cc4c3[nH]2)OCc2cc(-c3cnc([C@@H]4C[C@H](C)CN4C(=O)[C@H](NC(=O)OC)c4ccccc4)[nH]3)ccc2-5)N(C(=O)[C@@H](NC(=O)OC)C(C)C)C1 [Example 572],0.001 to 0.999 nM,0.001 to 0.999 nM,0.001 to 0.99 nM,,0.001 to 0.999 nM,0.001 to 0.999 nM,0.001 to 0.99 nM,0.001 to 0.999 nM,,,
